In publication PMC9434233, “Transmembrane helices 5 and 12 control transport dynamics, substrate affinity, and specificity in the elevator-type UapA transporter” (Genetics, 2022):

Key:
UapA [1] = target: T1, UapA (Aspergillus nidulans, UniProt Q07307); assay: [3H]-xanthine uptake in germinating conidiospores, initial rates; assay type: cell-based; settings: pH 6.8, 37°C; H+ symport; labelled compound; read-out: Km app
T1 construct: full-length UapA, C-terminal GFP-type functional tag kept, gpdA promoter, expressed in A. nidulans Δ7 strain lacking 7 major nucleobase transporters; homodimer

UapA [2] = target: T1, UapA; assay: competition of [3H]-xanthine uptake in germinating conidiospores; assay type: cell-based

| Ki (UapA [2]) [µM] | SMILES | Km (UapA [1]) [µM] |
| --- | --- | --- |
|  | O=c1[nH]c(=O)c2[nH]cnc2[nH]1 [XA, xanthine] | 6 |
| 103 | O=c1[nH]c(=O)c2c[nH]nc2[nH]1 [OX, oxypurinol] |  |
